From US10383333B2, “Carbamate compound and use thereof” (SUMITOMO CHEMICAL COMPANY, LIMITED, priority 2015, dated 2019)

Test system: wheat rust fungus (Puccinia recondita)
Test: Test Example 2: wheat rust, foliar spray before inoculation
Type: in vivo
Conditions: 500 ppm foliar spray on wheat (Shirogane), inoculated 5 days after spraying, formulated per Formulation Example 6

COC(=O)Nc1ccccc1COc1ccc(-c2ccccn2)cc1 [methyl N-(2-{[4-(pyridine-2-yl)phenoxy)methyl}phenyl)carbamate]
area of the lesion relative to untreated wheat: ≥ 70%
